The record followed here is patent publication US12091426B2, “Bifunctional degraders of hematopoietic progenitor kinase and therapeutic uses thereof” (Nurix Therapeutics, Inc., priority 2021, dated 2024).

The target of the assay is T1, HPK1 (Homo sapiens, UniProt Q92918).
T1 construct: A HiBiT tag was introduced by CRISPR on the N terminus of HPK1 in Jurkat cells; host or cells: Jurkat cells (ATCC TIB-152), monoclonal line with CRISPR knock-in of HiBiT at the endogenous HPK1 locus
In words: HPK1 Cellular HiBit Degradation Assay. In kind it is cell-based. Conditions: HiBiT HPK1 Jurkat cells, 24 hrs; for DC50: concentration at which 50% of HPK1 was remaining, read-out: DC50 Category; for Dmax: Jurkat, read-out: Dmax Category. In a few lines: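 HiBiT-HPK1 Jurkat (CRISPR, N-term tag), 3×10^4 cells/well, RPMI 1640 + 10% FBS; CTMs 10 uM–0.1 nM, 11 pts; 24 hrs, 37° C/5% CO2; lytic HiBiT luminescence; % remaining vs DMSO, parental background subtracted; 4-parameter fit → DC50, Dmax.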

[1] abbreviates: maximum degradation vs DMSO vehicle control.

Usually DC50 stands for the concentration at which degradation of the target reaches its halfway point. Broadly, the Dmax is the greatest extent of degradation seen.

T1 sequence (Q92918 whole entry): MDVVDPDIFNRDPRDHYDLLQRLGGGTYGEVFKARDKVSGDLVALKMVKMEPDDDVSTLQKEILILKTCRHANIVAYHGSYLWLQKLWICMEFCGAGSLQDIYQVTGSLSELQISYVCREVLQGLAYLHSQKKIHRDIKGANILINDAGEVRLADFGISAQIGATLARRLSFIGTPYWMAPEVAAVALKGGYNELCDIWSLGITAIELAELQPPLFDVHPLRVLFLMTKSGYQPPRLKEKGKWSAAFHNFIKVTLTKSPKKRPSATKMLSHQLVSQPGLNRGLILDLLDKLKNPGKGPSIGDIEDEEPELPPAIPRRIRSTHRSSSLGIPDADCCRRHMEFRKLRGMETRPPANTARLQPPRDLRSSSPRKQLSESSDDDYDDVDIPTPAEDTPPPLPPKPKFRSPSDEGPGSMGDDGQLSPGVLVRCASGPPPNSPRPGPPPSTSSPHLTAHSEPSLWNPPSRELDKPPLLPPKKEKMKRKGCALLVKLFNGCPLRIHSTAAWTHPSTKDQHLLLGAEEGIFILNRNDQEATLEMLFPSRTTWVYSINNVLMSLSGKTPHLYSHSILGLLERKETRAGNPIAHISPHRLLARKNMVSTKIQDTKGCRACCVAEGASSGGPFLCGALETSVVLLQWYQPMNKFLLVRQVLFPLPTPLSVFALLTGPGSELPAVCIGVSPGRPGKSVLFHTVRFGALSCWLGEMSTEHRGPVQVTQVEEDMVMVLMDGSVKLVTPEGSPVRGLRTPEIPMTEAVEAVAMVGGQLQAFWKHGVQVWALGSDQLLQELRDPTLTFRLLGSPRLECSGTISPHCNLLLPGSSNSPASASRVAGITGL

`CC(C)n1cnc2cc(-c3ccc4c(c3)N([C@H]3C[C@@H](N5CCCCC5)C3)C(=O)C43CCN(C(=O)C4(C)CCN(C(=O)[C@H]5CC[C@H](Oc6ccc(C7CCC(=O)NC7=O)cn6)CC5)CC4)CC3)nc(Nc3ccccc3F)c21` (mixture of isomers) [Example 105, (3RS)-3-(6-{1[(1R,4R)-4-{4-[(6-{4-[(2-fluorophenyl)amino]-3-(propan-2-yl)-3H-imidazo[4,5-c]pyridin-6-yl}-2-oxo-1-[(1S,3S)-3-(piperidin-1-yl)cyclobutyl]-1,2-dihydrospiro[indole-3,4′-piperidin]-1′-yl)carbonyl]-4-methylpiperidine-1-carbonyl}cyclohexyl]oxy}pyridin-3-yl)piperidine-2,6-dione]: the DC50 is under 0.1 µM. Besides, the Dmax under setting [1] was over 85%.

As to `CC(C)n1cnc2cc(-c3ccc4c(c3)N([C@H]3C[C@@H](N5CCCCC5)C3)C(=O)C43CCN(C(=O)[C@@H]4CCN(C(=O)[C@H]5CC[C@H](Oc6ccc(C7CCC(=O)NC7=O)cn6)CC5)C4)CC3)nc(Nc3ccccc3F)c21` (mixture of isomers) [Example 17, (3RS)-3-(6-{1[(1R,4R)-4-[(3R)-3-[(6-{4-[(2-fluorophenyl)amino]-3-(propan-2-yl)-3H-imidazo[4,5-c]pyridin-6-yl}-2-oxo-1-[(1S,3S)-3-(piperidin-1-yl)cyclobutyl]-1,2-dihydrospiro[indole-3,4′-piperidin]-1′-yl)carbonyl]pyrrolidine-1-carbonyl]cyclohexyl]oxy}pyridin-3-yl)piperidine-2,6-dione], the DC50 was under 0.1 µM. Under setting [1], the Dmax was over 85%.

For the molecule `CC(C)n1cnc2cc(-c3ccc4c(c3)N([C@H]3C[C@@H](N5CCCCC5)C3)C(=O)C43CCN(C(=O)C4CCN(C(=O)C5CCN(c6ncc(C7CCC(=O)NC7=O)cn6)CC5)CC4)CC3)nc(Nc3ccccc3F)c21` (stereo partly drawn) [Example 90, 3-(2-(4-(4-(6-(4-((2-fluorophenyl)amino)-3-isopropyl-3H-imidazo[4,5-c]pyridin-6-yl)-2-oxo-1-((1S,3S)-3-(piperidin-1-yl)cyclobutyl)spiro[indoline-3,4′-piperidine]-1′-carbonyl)piperidine-1-carbonyl)piperidin-1-yl)pyrimidin-5-yl)piperidine-2,6-dione], the DC50 is under 0.1 µM. The greatest degradation seen (Dmax) under setting [1] lay within 70 to 85%.

With `CC(C)n1cnc2cc(-c3ccc4c(c3)N([C@H]3C[C@@H](N5CCCCC5)C3)C(=O)C43CCN(C(=O)C4C5COCC4CN(C(=O)C4CCN(c6ccc(C7CCC(=O)NC7=O)cn6)CC4)C5)CC3)nc(NC3CC3)c21` (mixture of isomers) [Example 288, (3RS)-3-(6-{4-[9-({6-[4-(cyclopropylamino)-3-(propan-2-yl)-3H-imidazo[4,5-c]pyridin-6-yl]-2-oxo-1-[(1S,3S)-3-(piperidin-1-yl)cyclobutyl]-1,2-dihydrospiro[indole-3,4′-piperidin]-1′-yl}carbonyl)-3-oxa-7-azabicyclo[3.3.1]nonane-7-carbonyl]piperidin-1-yl}pyridin-3-yl)piperidine-2,6-dione], the DC50 is under 0.1 µM. Besides, under setting [1], the Dmax is over 85%.

For `CC(C)n1cnc2cc(-c3ccc4c(c3)N([C@H]3C[C@@H](N5CCCCC5)C3)C(=O)C43CCN(C(=O)[C@H]4CC[C@H](C(=O)N5CCC(Nc6ccc(C7CCC(=O)NC7=O)cn6)CC5)CC4)CC3)nc(Nc3ccncc3F)c21` (mixture of isomers) [Example 27], the DC50 is under 0.1 µM. Further, the maximal degradation (Dmax) under setting [1] was in the range of 50 to 70%.

On to `CC(C)n1cnc2cc(-c3ccc4c(c3)N([C@H]3C[C@@H](N5CCCCC5)C3)C(=O)C43CCN(C(=O)C45CN(C(=O)C6CCN(c7ccc(C8CCC(=O)NC8=O)cn7)CC6)CC4C5(F)F)CC3)nc(NC3CC3)c21` (mixture of isomers) [Example 281, (3RS)-3-(6-{4-[1-({6-[4-(cyclopropylamino)-3-(propan-2-yl)-3H-imidazo[4,5-c]pyridin-6-yl]-2-oxo-1-[(1S,3S)-3-(piperidin-1-yl)cyclobutyl]-1,2-dihydrospiro[indole-3,4′-piperidin]-1′-yl}carbonyl)-6,6-difluoro-3-azabicyclo[3.1.0]hexane-3-carbonyl]piperidin-1-yl}pyridin-3-yl)piperidine-2,6-dione], for which the DC50 is under 0.1 µM. Besides, the Dmax under setting [1] fell in the range of 50 to 70%.

With `CC(C)n1cnc2cc(-c3ccc4c(c3)N([C@H]3C[C@@H](N5CCCCC5)C3)C(=O)C43CCN(C(=O)[C@@H]4CCN(C(=O)[C@H]5CC[C@H](N(C)c6ccc(C7CCC(=O)NC7=O)cn6)CC5)C4)CC3)nc(Nc3ccncc3F)c21` (mixture of isomers) [Example 128, (3RS)-3-(6-{methyl[(1R,4R)-4-[(3R)-3-[(6-{4-[(3-Fluoropyridin-4-yl)amino]-3-(propan-2-yl)-3H-imidazo[4,5-c]pyridin-6-yl}-2-oxo-1-[(1S,3S)-3-(piperidin-1-yl)cyclobutyl]-1,2-dihydrospiro[indole-3,4′-piperidin]-1′-yl)carbonyl]pyrrolidine-1-carbonyl]cyclohexyl]amino}pyridin-3-yl)piperidine-2,6-dione], the DC50 is under 0.1 µM. Also, under setting [1], the Dmax is over 85%.

Take `CC(C)n1cnc2cc(-c3ccc4c(c3)N([C@H]3C[C@@H](N5CCCCC5)C3)C(=O)C43CCN(C(=O)C4(C)CCN(C(=O)[C@H]5CC[C@H](Oc6ccc(N7CCC(=O)NC7=O)cn6)CC5)CC4)CC3)nc(Nc3ccccc3F)c21` [Example 108, 1-(6-{[(1R,4R)-4-{4-[(6-{4-[(2-fluorophenyl)amino]-3-(propan-2-yl)-3H-imidazo[4,5-c]pyridin-6-yl}-2-oxo-1-[(1S,3S)-3-(piperidin-1-yl)cyclobutyl]-1,2-dihydrospiro[indole-3,4′-piperidin]-1′-yl)carbonyl]-4-methylpiperidine-1-carbonyl}cyclohexyl]oxy}pyridin-3-yl)-1,3-diazinane-2,4-dione]: the DC50 is under 0.1 µM. Besides, the Dmax under setting [1] lay within 70 to 85%.

With `CC(C)n1cnc2cc(-c3ccc4c(c3)N([C@H]3C[C@@H](N5CCCCC5)C3)C(=O)C43CCN(C(=O)[C@H]4CC[C@H](CNC(=O)C5CCN(c6ccc(C7CCC(=O)NC7=O)cn6)CC5)CC4)CC3)nc(NC3CC3)c21` (mixture of isomers) [Example 291, 1-{5-[(3RS)-2,6-dioxopiperidin-3-yl]pyridin-2-yl}-N-{[(1R,4R)-4-({6-[4-(cyclopropylamino)-3-(propan-2-yl)-3H-imidazo[4,5-c]pyridin-6-yl]-2-oxo-1-[(1S,3S)-3-(piperidin-1-yl)cyclobutyl]-1,2-dihydrospiro[indole-3,4′-piperidin]-1′-yl}carbonyl)cyclohexyl]methyl}piperidine-4-carboxamide], the DC50 is 0.1 to 0.5 µM. For the same molecule, the Dmax under setting [1] was in the range of 70 to 85%.

`CC(C)n1cnc2cc(-c3ccc4c(c3)N(C3CC(N5CCCCC5)C3)C(=O)C43CCN(C(=O)[C@@H]4CCN(C(=O)C5CCN(c6ccc(C7CCC(=O)NC7=O)cn6)CC5)C4)CC3)nc(Nc3ccncc3F)c21` (mixture of isomers) [Example 25, (3RS)-3-(6-{4-[(3R)-3-[(6-{4-[(3-fluoropyridin-4-yl)amino]-3-(propan-2-yl)-3H-imidazo[4,5-c]pyridin-6-yl}-2-oxo-1-[(1S,3S)-3-(piperidin-1-yl)cyclobutyl]-1,2-dihydrospiro[indole-3,4′-piperidin]-1′-yl)carbonyl]pyrrolidine-1-carbonyl]piperidin-1-yl}pyridin-3-yl)piperidine-2,6-dione]: the DC50 is under 0.1 µM. In addition, the “Dmax Category” value under setting [1] is listed as “B (B: >70%-<85%)”.

With `CC(C)n1cnc2cc(-c3ccc4c(c3)N([C@H]3C[C@@H](N5CCCCC5)C3)C(=O)C43CCN(C(=O)[C@H]4CC[C@@H](C(=O)N5CCC(Nc6ccc(C7CCC(=O)NC7=O)cn6)CC5)CC4)CC3)nc(Nc3ccccc3F)c21` (mixture of isomers) [Example 30, (3RS)-3-[6-({1-[(1S,4S)-4-[(6-{4-[(2-fluorophenyl)amino]-3-(propan-2-yl)-3H-imidazo[4,5-c]pyridin-6-yl}-2-oxo-1-[(1S,3S)-3-(piperidin-1-yl)cyclobutyl]-1,2-dihydrospiro[indole-3,4′-piperidin]-1′-yl)carbonyl]cyclohexanecarbonyl]piperidin-4-yl}amino)pyridin-3-yl]piperidine-2,6-dione], the DC50 is under 0.1 µM. Moreover, the Dmax under setting [1] was in the range of 70 to 85%.

Consider `Cc1cc(C(=O)N2CCN(c3ccc4c(c3)C(=O)N(C3CCC(=O)NC3=O)C4=O)CC2)ccc1C(=O)N1CCC2(CC1)C(=O)N([C@H]1C[C@@H](N3CCCCC3)C1)c1cc(-c3cc4ncn(C(C)C)c4c(Nc4ccccc4F)n3)ccc12` (mixture of isomers) [Example 124, 2-[(3RS)-2,6-dioxopiperidin-3-yl]-5-(4-{4-[(6-{4-[(2-fluorophenyl)amino]-3-(propan-2-yl)-3H-imidazo[4,5-c]pyridin-6-yl}-2-oxo-1-[(1S,3S)-3-(piperidin-1-yl)cyclobutyl]-1,2-dihydrospiro[indole-3,4′-piperidin]-1′-yl)carbonyl]-3-methylbenzoyl}piperazin-1-yl)-2,3-dihydro-1H-isoindole-1,3-dione], for which the DC50 lay in the range of 0.1 to 0.5 µM. Further, the Dmax under setting [1] was 70 to 85%.

In the case of `CC(C)n1cnc2cc(-c3ccc4c(c3)N([C@H]3C[C@@H](N5CC6CCC(C5)O6)C3)C(=O)C43CCN(C(=O)C4(C)CCN(C(=O)C5CCN(c6ccc(C7CCC(=O)NC7=O)cn6)CC5)CC4)CC3)nc(NC3CC3)c21` (mixture of isomers) [Example 204, (3RS)-3-(6-{4-[4-({6-[4-(cyclopropylamino)-3-(propan-2-yl)-3H-imidazo[4,5-c]pyridin-6-yl]-2-oxo-1-[(1S,3S)-3-{8-oxa-3-Azabicyclo[3.2.1]octan-3-yl}cyclobutyl]-1,2-dihydrospiro[indole-3,4′-piperidin]-1′-yl}carbonyl)-4-methylpiperidine-1-carbonyl]piperidin-1-yl}pyridin-3-yl)piperidine-2,6-dione], the DC50 lay within 0.1 to 0.5 µM. Besides, the maximal degradation (Dmax) under setting [1] fell in the range of 70 to 85%.
